# Patent publication US20080096967A1, “Formulations for Injection of Catecholic Butanes, Including Ndga Compounds, Into Animals” (priority 2005, published 2008)
# Test: M4N solubility in water miscible organic solvents up to 48 hours (RP-HPLC)
# Format: physicochemical
# Method: To prepare M4N samples, 200 μL of 100 mg/mL M4N dissolved in acetone were placed in 1.5 mL polypropylene microtubes. The solvent was allowed to evaporate at room temperature for 48 hours until the samples were completely dry.
# The water miscible organic solvent formulations were prepared in 15 mL polypropylene centrifuge tubes. 10 mL of each formulation was prepared. Each solvent was added on the basis of weight using its respective density at 25° C. Following brief mixing, each formulation was filtered through a 0.45 μm surfactant free cellulose acetate (“SFCA”) filter into a fresh 15 mL tube. Formulations were kept at room temperature until ready for use.
# At each time point, the samples were centrifuged for 2 minutes at 13,000 rpm to pellet any solid M4N. As noted in Table 25, over half of the formulation conditions examined were able to solubilize M4N to a concentration of greater than 10 mg/Ml.
compound,measurement,setting,value
"COc1ccc(C[C@@H](C)[C@@H](C)Cc2ccc(OC)c(OC)c2)cc1OC [Formulation M4N, meso-1,4-bis(3,4-dimethoxyphenyl)-2,3-dimethylbutane]",M4N solubility,"14% EtOH, 30% PG, 40% Crem, 10% T80, 6% DMA, 2 hrs at room temperature",9030 µg/mL
same,M4N solubility,"14% EtOH, 30% PG, 40% Crem, 10% T80, 6% DMA, 24 hrs at room temperature",12080 µg/mL
same,M4N solubility,"14% EtOH, 30% PG, 40% Crem, 10% T80, 6% DMA, 48 hrs at room temperature",12280 µg/mL
same,M4N solubility,"14% EtOH, 30% PG, 40% Glyc, 10% T80, 6% DMA, 2 hrs at room temperature",850 µg/mL
same,M4N solubility,"14% EtOH, 30% PG, 40% Glyc, 10% T80, 6% DMA, 24 hrs at room temperature",1240 µg/mL
same,M4N solubility,"14% EtOH, 30% PG, 40% Glyc, 10% T80, 6% DMA, 48 hrs at room temperature",1480 µg/mL
same,M4N solubility,"14% EtOH, 30% PG, 40% PEG300, 10% T80, 6% DMA, 2 hrs at room temperature",9400 µg/mL
same,M4N solubility,"14% EtOH, 30% PG, 40% PEG300, 10% T80, 6% DMA, 24 hrs at room temperature",10550 µg/mL
same,M4N solubility,"14% EtOH, 30% PG, 40% PEG300, 10% T80, 6% DMA, 48 hrs at room temperature",11300 µg/mL
same,M4N solubility,"18% EtOH, 30% PG, 40% Crem, 10% T80, 2% Benz, 2 hrs at room temperature",8640 µg/mL
same,M4N solubility,"18% EtOH, 30% PG, 40% Crem, 10% T80, 2% Benz, 24 hrs at room temperature",11780 µg/mL
same,M4N solubility,"18% EtOH, 30% PG, 40% Crem, 10% T80, 2% Benz, 48 hrs at room temperature",11860 µg/mL
same,M4N solubility,"18% EtOH, 30% PG, 40% Glyc, 10% T80, 2% Benz, 2 hrs at room temperature",580 µg/mL
same,M4N solubility,"18% EtOH, 30% PG, 40% Glyc, 10% T80, 2% Benz, 24 hrs at room temperature",1010 µg/mL
same,M4N solubility,"18% EtOH, 30% PG, 40% Glyc, 10% T80, 2% Benz, 48 hrs at room temperature",1150 µg/mL
same,M4N solubility,"18% EtOH, 30% PG, 40% PEG300, 10% T80, 2% Benz, 2 hrs at room temperature",7840 µg/mL
same,M4N solubility,"18% EtOH, 30% PG, 40% PEG300, 10% T80, 2% Benz, 24 hrs at room temperature",9790 µg/mL
same,M4N solubility,"18% EtOH, 30% PG, 40% PEG300, 10% T80, 2% Benz, 48 hrs at room temperature",10160 µg/mL
same,M4N solubility,"24% EtOH, 30% PG, 30% Crem, 10% T80, 6% DMA, 2 hrs at room temperature",10420 µg/mL
same,M4N solubility,"24% EtOH, 30% PG, 30% Crem, 10% T80, 6% DMA, 24 hrs at room temperature",11250 µg/mL
same,M4N solubility,"24% EtOH, 30% PG, 30% Crem, 10% T80, 6% DMA, 48 hrs at room temperature",12480 µg/mL
same,M4N solubility,"24% EtOH, 30% PG, 30% Glyc, 10% T80, 6% DMA, 2 hrs at room temperature",1630 µg/mL
same,M4N solubility,"24% EtOH, 30% PG, 30% Glyc, 10% T80, 6% DMA, 24 hrs at room temperature",2260 µg/mL
same,M4N solubility,"24% EtOH, 30% PG, 30% Glyc, 10% T80, 6% DMA, 48 hrs at room temperature",2520 µg/mL
same,M4N solubility,"24% EtOH, 30% PG, 30% PEG300, 10% T80, 6% DMA, 2 hrs at room temperature",9910 µg/mL
same,M4N solubility,"24% EtOH, 30% PG, 30% PEG300, 10% T80, 6% DMA, 24 hrs at room temperature",10800 µg/mL
same,M4N solubility,"28% EtOH, 30% PG, 30% Crem, 10% T80, 2% Benz, 2 hrs at room temperature",8980 µg/mL
same,M4N solubility,"28% EtOH, 30% PG, 30% Crem, 10% T80, 2% Benz, 24 hrs at room temperature",11350 µg/mL
same,M4N solubility,"28% EtOH, 30% PG, 30% Crem, 10% T80, 2% Benz, 48 hrs at room temperature",11280 µg/mL
same,M4N solubility,"28% EtOH, 30% PG, 30% Glyc, 10% T80, 2% Benz, 2 hrs at room temperature",1860 µg/mL
same,M4N solubility,"28% EtOH, 30% PG, 30% Glyc, 10% T80, 2% Benz, 24 hrs at room temperature",2220 µg/mL
same,M4N solubility,"28% EtOH, 30% PG, 30% Glyc, 10% T80, 2% Benz, 48 hrs at room temperature",2530 µg/mL
same,M4N solubility,"28% EtOH, 30% PG, 30% PEG300, 10% T80, 2% Benz, 2 hrs at room temperature",8870 µg/mL
same,M4N solubility,"28% EtOH, 30% PG, 30% PEG300, 10% T80, 2% Benz, 24 hrs at room temperature",10190 µg/mL
same,M4N solubility,"28% EtOH, 30% PG, 30% PEG300, 10% T80, 2% Benz, 48 hrs at room temperature",10270 µg/mL
same,M4N solubility,"44% EtOH, 50% Crem, 6% DMA, 2 hrs at room temperature",14850 µg/mL
same,M4N solubility,"44% EtOH, 50% Crem, 6% DMA, 24 hrs at room temperature",20420 µg/mL
same,M4N solubility,"44% EtOH, 50% Crem, 6% DMA, 48 hrs at room temperature",21080 µg/mL
same,M4N solubility,"44% EtOH, 50% Glycerol, 6% DMA, 2 hrs at room temperature",1430 µg/mL
same,M4N solubility,"44% EtOH, 50% Glycerol, 6% DMA, 24 hrs at room temperature",1900 µg/mL
same,M4N solubility,"44% EtOH, 50% Glycerol, 6% DMA, 48 hrs at room temperature",2010 µg/mL
same,M4N solubility,"44% EtOH, 50% PEG300, 6% DMA, 2 hrs at room temperature",15120 µg/mL
same,M4N solubility,"44% EtOH, 50% PEG300, 6% DMA, 24 hrs at room temperature",18610 µg/mL
same,M4N solubility,"44% EtOH, 50% PEG300, 6% DMA, 48 hrs at room temperature",18270 µg/mL
same,M4N solubility,"44% EtOH, 50% PG, 6% DMA, 2 hrs at room temperature",4800 µg/mL
same,M4N solubility,"44% EtOH, 50% PG, 6% DMA, 24 hrs at room temperature",5480 µg/mL
same,M4N solubility,"44% EtOH, 50% PG, 6% DMA, 48 hrs at room temperature",2930 µg/mL
same,M4N solubility,"44% EtOH, 50% T80, 6% DMA, 2 hrs at room temperature",17720 µg/mL
same,M4N solubility,"44% EtOH, 50% T80, 6% DMA, 24 hrs at room temperature",22410 µg/mL
same,M4N solubility,"44% EtOH, 50% T80, 6% DMA, 48 hrs at room temperature",23000 µg/mL
same,M4N solubility,"48% EtOH, 50% Crem, 2% Benz, 2 hrs at room temperature",14020 µg/mL
same,M4N solubility,"48% EtOH, 50% Crem, 2% Benz, 24 hrs at room temperature",18170 µg/mL
same,M4N solubility,"48% EtOH, 50% Crem, 2% Benz, 48 hrs at room temperature",18510 µg/mL
same,M4N solubility,"48% EtOH, 50% Glycerol, 2% Benz, 2 hrs at room temperature",1250 µg/mL
same,M4N solubility,"48% EtOH, 50% Glycerol, 2% Benz, 24 hrs at room temperature",1660 µg/mL
same,M4N solubility,"48% EtOH, 50% Glycerol, 2% Benz, 48 hrs at room temperature",1730 µg/mL
same,M4N solubility,"48% EtOH, 50% PEG300, 2% Benz, 2 hrs at room temperature",14510 µg/mL
same,M4N solubility,"48% EtOH, 50% PEG300, 2% Benz, 24 hrs at room temperature",15780 µg/mL
same,M4N solubility,"48% EtOH, 50% PEG300, 2% Benz, 48 hrs at room temperature",16490 µg/mL
same,M4N solubility,"48% EtOH, 50% PG, 2% Benz, 2 hrs at room temperature",4420 µg/mL
same,M4N solubility,"48% EtOH, 50% PG, 2% Benz, 24 hrs at room temperature",4790 µg/mL
same,M4N solubility,"48% EtOH, 50% PG, 2% Benz, 48 hrs at room temperature",4920 µg/mL
same,M4N solubility,"48% EtOH, 50% T80, 2% Benz, 2 hrs at room temperature",16170 µg/mL
same,M4N solubility,"48% EtOH, 50% T80, 2% Benz, 24 hrs at room temperature",19550 µg/mL
same,M4N solubility,"48% EtOH, 50% T80, 2% Benz, 48 hrs at room temperature",19960 µg/mL
same,M4N solubility,"50% EtOH, 50% Crem, 2 hrs at room temperature",13950 µg/mL
same,M4N solubility,"50% EtOH, 50% Crem, 24 hrs at room temperature",17580 µg/mL
same,M4N solubility,"50% EtOH, 50% Crem, 48 hrs at room temperature",18490 µg/mL
same,M4N solubility,"50% EtOH, 50% Glycerol, 2 hrs at room temperature",1140 µg/mL
same,M4N solubility,"50% EtOH, 50% Glycerol, 24 hrs at room temperature",1530 µg/mL
same,M4N solubility,"50% EtOH, 50% Glycerol, 48 hrs at room temperature",1600 µg/mL
same,M4N solubility,"50% EtOH, 50% PEG300, 24 hrs at room temperature",15070 µg/mL
same,M4N solubility,"50% EtOH, 50% PEG300, 48 hrs at room temperature",16610 µg/mL
same,M4N solubility,"50% EtOH, 50% PG, 2 hrs at room temperature",3640 µg/mL
same,M4N solubility,"50% EtOH, 50% PG, 24 hrs at room temperature",4150 µg/mL
same,M4N solubility,"50% EtOH, 50% PG, 48 hrs at room temperature",4430 µg/mL
same,M4N solubility,"50% EtOH, 50% T80, 2 hrs at room temperature",15910 µg/mL
same,M4N solubility,"50% EtOH, 50% T80, 24 hrs at room temperature",19280 µg/mL
same,M4N solubility,"50% PG, 50% Crem, 2 hrs at room temperature",2940 µg/mL
same,M4N solubility,"50% PG, 50% Crem, 24 hrs at room temperature",6330 µg/mL
same,M4N solubility,"50% PG, 50% Crem, 48 hrs at room temperature",7200 µg/mL
same,M4N solubility,"50% PG, 50% Glycerol, 2 hrs at room temperature",130 µg/mL
same,M4N solubility,"50% PG, 50% Glycerol, 24 hrs at room temperature",480 µg/mL
same,M4N solubility,"50% PG, 50% Glycerol, 48 hrs at room temperature",510 µg/mL
same,M4N solubility,"50% PG, 50% PEG300, 2 hrs at room temperature",2650 µg/mL
same,M4N solubility,"50% PG, 50% PEG300, 24 hrs at room temperature",4880 µg/mL
same,M4N solubility,"50% PG, 50% PEG300, 48 hrs at room temperature",5300 µg/mL
same,M4N solubility,"50% PG, 50% T80, 2 hrs at room temperature",5070 µg/mL
same,M4N solubility,"50% PG, 50% T80, 24 hrs at room temperature",8160 µg/mL
same,M4N solubility,"50% PG, 50% T80, 48 hrs at room temperature",8410 µg/mL
same,M4N solubility,"100% Crem, 2 hrs at room temperature",1190 µg/mL
same,M4N solubility,"100% Crem, 24 hrs at room temperature",7510 µg/mL
same,M4N solubility,"100% Crem, 48 hrs at room temperature",12480 µg/mL
same,M4N solubility,"100% EtOH, 2 hrs at room temperature",7200 µg/mL
same,M4N solubility,"100% EtOH, 24 hrs at room temperature",7220 µg/mL
same,M4N solubility,"100% EtOH, 48 hrs at room temperature",7910 µg/mL
same,M4N solubility,"100% Glycerol, 2 hrs at room temperature",XXX (not detectable)
same,M4N solubility,"100% Glycerol, 24 hrs at room temperature",80 µg/mL
same,M4N solubility,"100% Glycerol, 48 hrs at room temperature",XXX (not detectable)
same,M4N solubility,"glycerol, 2 and 48 hours",not detectable
